Measurements from patent EP0923292B1, “IMPROVED METHOD FOR SYSTEMIC ADMINISTRATION OF 2,4-DIENOIC ACID-TYPE INSECTICIDES TO TERRESTRIAL MAMMALS” (priority 1996, dated 1998).
Like-named read-outs stand apart in the source and are kept apart here.

What was measured:
adult cat fleas C. felis = assay: Flea ovicidal activity in vitro: artificial feeding system with blood drawn from treated dogs (Example 3); settings: fed to fleas
Excerpt: (§1) For the in vitro tests, an artificial feeding system with cages for adult cat fleas C. felis was used as described by Wade, S.E., et al., J. Med. Ent. 25(3): 186-190 (May 1988). Inside each cage were placed 100 one-week-old, unfed adult C. fells. Each cage included a container for treated blood separated from the fleas by a PARAFILM® membrane, and a compartment containing thin strips of paper to support loosely arranged clean dog hair and to provide a foothold for the fleas as they fed on the blood through the membrane.
Fifteen healthy male beagle dogs, one year of age, with weights ranging from 10.29 kg to 13.87 kg, were divided into three groups of five dogs each. One group was fed an initial bolus of 50 mg/kg of (S)-methoprene, followed by daily feeding a standard maintenance diet containing 0.02% (S)-methoprene. The second group was fed an initial bolus of 25 mg/kg of (S)-methoprene, followed by daily feeding a standard maintenance diet containing 0.01% (S)-methoprene. The third group received the same diet but with no (S)-methoprene, thereby serving as a control. The daily feeding of 0.02% (S)-methoprene in the first group amounted to approximately 3.6 mg/kg, while the daily feeding of 0.01% (S)-methoprene in the second group amounted to approximately 1.8 mg/kg. The (S)-methoprene was administered in a gelatin capsule, the control involved administration of a gelatin capsule containing vegetable oil instead of (S)-methoprene, and the standard diet was a Science Diet Canine Maintenance. The daily feeding of the (S)-methoprene continued for six weeks following the initial bolus.
Seven days after the initial bolus and weekly thereafter for five more weeks except week 4, 50 mL of blood was collected from each dog into a syringe preloaded with 3 mL of a 20% (by weight) aqueous sodium citrate solution. The five 50-mL samples from each treatment group were pooled at each bleeding. Aliquots of 10 mL each from each pool were placed in separate feeding chambers of the artificial flea feeding cages.
Flea eggs were collected from each cage at appropriate intervals. One hundred (100) healthy appearing […] were counted under a dissecting microscope from each cage, divided into two subsamples, and placed in 60 mm x 15 mm plastic petri dishes. The samples were incubated at 78°F and 85% relative humidity for three days, then scored for larval hatch by visual observation through the dissecting microscope. The data from all replicates in each treatment group were combined to yield the mean percent egg hatch, and the percent inhibition of egg hatch was calculated relative to the control.

[1] = (S)-Methoprene concentration in rat blood upon in vivo administration (radioassay/TLC); settings: average of three animals
adult cat fleas = assay: Flea ovicidal activity in vitro: artificial feeding system with treated beef blood (Examples 4 and 6); parameters: species or system C. felis; settings: Ctenocephalides felis; for inhibition at 0.05 ppm: 0.05 ppm in beef blood; for inhibition at 0.075 ppm: 0.075 ppm in beef blood; for inhibition at 0.1 ppm: 0.1 ppm in beef blood; for inhibition at 0.25 ppm: 0.25 ppm in beef blood; for inhibition at 0.5 ppm: 0.5 ppm in beef blood
Excerpt: as §1
The artificial feeding system and cages for adult cat fleas described in Example 3 were used. Beef blood was used for the feeding system, and was prepared by adding 35 mL of a 20% sodium citrate solution per liter of blood to prevent clotting. A stock solution of lufenuron was prepared by adding 50.1 mg of technical lufenuron to 4.951 g of dimethyl sulfoxide (DMSO) to yield a 1.0% solution. A 1,000 ppm solution was then prepared by diluting 1.0 mL of the 1.0% solution in 9.0 mL of DMSO, and a 100 ppm solution was prepared by diluting 1.0 mL of the 1,000 ppm solution in 9.0 mL of DMSO. Dimethyl sulfoxide itself was used as a control. To treat the blood, the various solutions (0.05 mL) were added to the citrated beef blood (100.0 mL) to yield beef blood solutions containing 5.0 ppm, 0.5 ppm, 0.05 ppm, and 0.00 (zero) ppm lufenuron. Each solution was mixed thoroughly, and 10 mL at each concentration were placed in each of five feeders in the artificial feeding system to serve as replicates. Each day fresh blood solutions identical to the originals were placed in the feeders.
Flea eggs were collected from each replicate on days 3, 5 and 7. One hundred (100) healthy appearing […] were counted under a dissecting microscope from each replicate, divided into two subsamples per replicate, and placed in 60 mm x 15 mm plastic petri dishes. The samples were incubated at 78°F and 85% relative humidity for three days, then scored for larval hatch using by visual observation through the dissecting microscope. The data from all replicates at each concentration were combined to yield the mean percent egg hatch, and the percent inhibition of egg hatch was calculated relative to the control.
Retuming to (S)-methoprene, this example presents in vitro flea ovicidal activity using beef blood, for comparison with Example 4. Procedures using beef blood were the same as those indicated in the previous examples.

[2] = average over days, read-out: Percent Inhibition of Flea Egg Hatching, averages
[3] = 72 h, day 3, read-out: Percent Inhibition of Flea Egg Hatching
[4] = 120 h, day 5, read-out: Percent Inhibition of Flea Egg Hatching
[5] = 144 h, day 6, read-out: Percent Inhibition of Flea Egg Hatching
[6] = 240 h, day 10, read-out: Percent Inhibition of Flea Egg Hatching

SMILES: COC(C)(C)CCC[C@H](C)C/C=C/C(C)=C/C(=O)OC(C)C [(S)-Methoprene, 1-isopropyl (E,E)-11-methoxy-3,7,11-trimethyl dodecadi-2,4-enoate]
- Percent Inhibition of Flea Egg Hatching (adult cat fleas C. felis; pooled blood of dogs given initial bolus 25 mg/kg then daily diet 0.01% (S)-methoprene, week 1): 6%
- Percent Inhibition of Flea Egg Hatching (adult cat fleas C. felis; pooled blood of dogs given initial bolus 25 mg/kg then daily diet 0.01% (S)-methoprene, week 3): 38%
- Percent Inhibition of Flea Egg Hatching (adult cat fleas C. felis; pooled blood of dogs given initial bolus 25 mg/kg then daily diet 0.01% (S)-methoprene, week 5): 24%
- Percent Inhibition of Flea Egg Hatching (adult cat fleas C. felis; pooled blood of dogs given initial bolus 25 mg/kg then daily diet 0.01% (S)-methoprene, week 6): 19%
- Percent Inhibition of Flea Egg Hatching (adult cat fleas C. felis; pooled blood of dogs given initial bolus 50 mg/kg then daily diet 0.02% (S)-methoprene, week 1): 33%
- Percent Inhibition of Flea Egg Hatching (adult cat fleas C. felis; pooled blood of dogs given initial bolus 50 mg/kg then daily diet 0.02% (S)-methoprene, week 3): 48%
- Percent Inhibition of Flea Egg Hatching (adult cat fleas C. felis; pooled blood of dogs given initial bolus 50 mg/kg then daily diet 0.02% (S)-methoprene, week 5): 38%
- Percent Inhibition of Flea Egg Hatching (adult cat fleas C. felis; pooled blood of dogs given initial bolus 50 mg/kg then daily diet 0.02% (S)-methoprene, week 6): 22%
- (S)-Methoprene Concentration in Blood ([1]; Group A 10 mg/kg I.V., 0.5 hours): 0.703 ± 0.307 ppm
- (S)-Methoprene Concentration in Blood ([1]; Group A 10 mg/kg I.V., 1 hour): 0.345 ± 0.107 ppm
- (S)-Methoprene Concentration in Blood ([1]; Group A 10 mg/kg I.V., 2 hours): 0.113 ± 0.028 ppm
- (S)-Methoprene Concentration in Blood ([1]; Group A 10 mg/kg I.V., 3 hours): 0.079 ± 0.002 ppm
- (S)-Methoprene Concentration in Blood ([1]; Group A 10 mg/kg I.V., 4 hours): 0.066 ± 0.028 ppm
- (S)-Methoprene Concentration in Blood ([1]; Group A 10 mg/kg I.V., 5 hours): 0.048 ± 0.001 ppm
- (S)-Methoprene Concentration in Blood ([1]; Group A 10 mg/kg I.V., 6 hours): 0.046 ± 0.027 ppm
- (S)-Methoprene Concentration in Blood ([1]; Group A 10 mg/kg I.V., 7 hours): 0.019 ± 0.008 ppm
- (S)-Methoprene Concentration in Blood ([1]; Group B 10 mg/kg oral, 1 hour): 0.112 ± 0.038 ppm
- (S)-Methoprene Concentration in Blood ([1]; Group B 10 mg/kg oral, 2 hours): 0.264 ± 0.122 ppm
- (S)-Methoprene Concentration in Blood ([1]; Group B 10 mg/kg oral, 3 hours): 0.202 ± 0.065 ppm
- (S)-Methoprene Concentration in Blood ([1]; Group B 10 mg/kg oral, 4 hours): 0.130 ± 0.066 ppm
- (S)-Methoprene Concentration in Blood ([1]; Group B 10 mg/kg oral, 5 hours): 0.052 ± 0.026 ppm
- (S)-Methoprene Concentration in Blood ([1]; Group B 10 mg/kg oral, 6 hours): 0.045 ± 0.014 ppm
- (S)-Methoprene Concentration in Blood ([1]; Group B 10 mg/kg oral, 7 hours): 0.020 ± 0.005 ppm
- (S)-Methoprene Concentration in Blood ([1]; Group B 10 mg/kg oral, 8 hours): 0.021 ± 0.009 ppm
- (S)-Methoprene Concentration in Blood ([1]; Group C 100 mg/kg oral, 1 hour): 0.165 ± 0.070 ppm
- (S)-Methoprene Concentration in Blood ([1]; Group C 100 mg/kg oral, 2 hours): 3.487 ± 1.324 ppm
- (S)-Methoprene Concentration in Blood ([1]; Group C 100 mg/kg oral, 3 hours): 1.302 ± 0.409 ppm
- (S)-Methoprene Concentration in Blood ([1]; Group C 100 mg/kg oral, 4 hours): 1.504 ± 0.533 ppm
- (S)-Methoprene Concentration in Blood ([1]; Group C 100 mg/kg oral, 5 hours): 0.930 ± 0.449 ppm
- (S)-Methoprene Concentration in Blood ([1]; Group C 100 mg/kg oral, 6 hours): 0.527 ± 0.341 ppm
- (S)-Methoprene Concentration in Blood ([1]; Group C 100 mg/kg oral, 7 hours): 0.608 ± 0.292 ppm
- (S)-Methoprene Concentration in Blood ([1]; Group C 100 mg/kg oral, 8 hours): 0.483 ± 0.221 ppm
- inhibition at 0.05 ppm (adult cat fleas; [2]): 56.4%
- inhibition at 0.075 ppm (adult cat fleas; average of a and b, read-out: Percent Inhibition of Flea Egg Hatching, averages): 72%
- inhibition at 0.1 ppm (adult cat fleas; [2]): 96.6%
- inhibition at 0.25 ppm (adult cat fleas; [2]): 99.5%
- inhibition at 0.5 ppm (adult cat fleas; [2]): 99.8%
- inhibition at 0.05 ppm (adult cat fleas; [3]): 47.3%
- inhibition at 0.5 ppm (adult cat fleas; [3]): 99.1%
- inhibition at 0.1 ppm (adult cat fleas; [4]): 97.4%
- inhibition at 0.25 ppm (adult cat fleas; [4]): 100%
- inhibition at 0.1 ppm (adult cat fleas; [5]): 95.7%
- inhibition at 0.25 ppm (adult cat fleas; [5]): 99%
- inhibition at 0.5 ppm (adult cat fleas; 168 h, day 7, read-out: Percent Inhibition of Flea Egg Hatching): 100%
- inhibition at 0.075 ppm (adult cat fleas; 192 h, day 8, entry a, read-out: Percent Inhibition of Flea Egg Hatching): 66%
- inhibition at 0.075 ppm (adult cat fleas; 192 h, day 8, entry b, read-out: Percent Inhibition of Flea Egg Hatching): 78%
- inhibition at 0.05 ppm (adult cat fleas; [6]): 65.4%
- inhibition at 0.5 ppm (adult cat fleas; [6]): 100%
- inhibition at 0.5 ppm (adult cat fleas; 312 h, day 13, read-out: Percent Inhibition of Flea Egg Hatching): 100%
